According to patent US20080051393A1, “Novel cannabinoids and methods of use” (Eastern Virginia Medical School, priority 2006, published 2008):
Entries after “also recorded” stand apart in the source; their conditions may differ.

Experiments:
optic nerve = experiment: Rat NMDA model: optic nerve histology; assay type: in vivo
Protocol: (§1) Rat NMDA Model. To mimic glaucomatous damage to the retina without a potentially confounding effect on IOP, retinal damage was induced by NMDA in a rat model. Following baseline measurements, e.g. IOP, ERG, slit lamp, fundus photography, heart rate and blood pressure, N-methyl D-aspartate (NMDA, 2 μl of 10 mM) was injected intravitreally to induce RGC damage. […] For positive identification, a hand scanner was used each time the rat was examined. This was necessary since the examiners will be masked as to treatment group. Treatment groups consisted of either NMDA only (control), O-1812 (0.1%) or O-2545 (0.1%), O-1812 (0.1%)+SR-141716 (2 mM), O-2545 (0.1%)+SR-141716 (2 mM), O-1812 (0.1%)+SR-144258 (2 mM) and O-2545 (0.1%)+SR-144258 (2 mM). All experiments were conducted in accordance with the policies of the Institutional Animal Care and Use Committee and the ARVO policy on use of animals in experiments. A minimum of two baseline ERG measurements was recorded 1 wk prior, 1 wk and 2 wk post injection. At the end of each experiment, rats were sacrificed and their eyes were preserved for histological assessment of effects on the retina and optic nerve.
Histology. For retinal flat mounts, retinas were dissected from formalin fixed whole eyes, mounted on superfrost glass slides, stained with hematoxylin and eosin and digitally photographed. […]

Rat NMDA Model = experiment: Rat NMDA model: electroretinogram a-wave; assay type: in vivo; conditions: for Effect of CB1 antagonist SR-141716 on the action of the drug (ERG a-wave): drug 0.1% + SR-141716 2 mM
Protocol: as §1
Electroretinogram. In normal retina, full field electroretinography (ERG) stimulates both rods (a-waves) and cones (b-waves). A decrease in their amplitudes indicates retinal functional damage. Scotopic ERG changes were measured in rats that were dark-adapted for at least 4 hours. Eyes were then dilated with 1% atropine after which 0.5% proparacaine and methylcellulose gel (GPS 2.5%) was applied topically. Custom made AgCl electrodes were placed on the apex of the cornea. Stimuli consisted of 10-μsec flashes of unattenuated white light generated by a Ganzfeld bowl photo stimulator. Data from each eye were recorded separately with a driver amplifier and acquired digitally via DASYLab. The contralateral normal eye served as an age matched negative control, e.g. response in a normal, undamaged eye. Differences in amplitude of the a- and b-waves between the operated eye and the contralateral eye were calculated and analyzed by ANOVA and t-test.

[1] = tested on: IOP in a rat glaucoma model; experiment: IOP after topical application in chronic rat glaucoma model; assay type: in vivo, Sprague-Dawley rats; conditions: for Effect on IOP compared to baseline or vehicle: all concentrations tested
Excerpt: (§2) Rat Glaucoma Model. Compared to acute studies, a chronic rat model of glaucoma was generated. The rats were made glaucomatous by ligating three vortex veins (Hosseini, A. et al. (2006) Chronic topical administration of WIN-55-212-2 maintinas a reduction in IOP in a rat glaucoma model without adverse effects. Exp. Eye Res. 82(5):753-9). More specifically, ocular hypertension was induced in Sprague-Dawley rats by ligating 3 of 4 episcleral veins of the right eye using 9.0 nylon sutures under anesthesia with 3 mg/Kg acepromazine and 20 mg/Kg ketamine. Within 6 wk, IOP increased by at least 5 mm Hg in the operated eye. This intervention produced at least a 30% increase in IOP in the operated eye and lasted for up to 60 weeks. During this time, a 30% loss of retinal function was documented by ERG. […] Thus, the model accurately mimics the progressive damage that occurs in patients with glaucoma.
(§3) Measurements of Intraocular Pressure. IOP elevation was measured under mild sedation using a calibrated Goldmann tonometer modified for rats. Three determinations were averaged for each eye. To account for diurnal variation, all IOP's were measured between 11 am and 1 pm during the daily trough period.
Therapeutic Regimen. For IOP Measurements (Topical application) Baseline IOP, heart rate, blood pressure and normal ocular anatomy were documented prior to drug administration. The drugs WIN 55-212-2 (0.1%, 1.0%), O-1812 (0.01%, 0.1%, 1.0%), O-2545 (0.1%, 1.0%) were all dissolved in Tocrisolve™ (vehicle). IOP, heart rate, and blood pressure were measured prior to and after 30, 60 and 120 min after topical administration. Contralateral eyes served as vehicle treated controls.

[2] = tested on: IOP in a rat glaucoma model; experiment: Combination therapy: IOP in a rat glaucoma model; assay type: in vivo, Sprague Dawley rats; conditions: 1.0% topical alone, 120 min
Excerpt: as §2, §3
Combination Therapy. Since cannabinoids and timolol, which are both known to reduce IOP, have different mechanisms of action, there is potential for a synergistic effect. The combination of timolol and a synthetic cannabinoid (WIN55 212-2, O-1812, or O-2545) to reduce IOP in a chronic rat model of ocular hypertension was examined. Surgical ligation of three of the four episcleral veins in one eye of Sprague Dawley rats caused a long lasting (>44 week) increase in IOP. IOP was measured by Goldmann tonometry at baseline (−30), 0, 30, 60 and 120 min, as was heart rate and blood pressure. For combination therapy, after baseline IOP measurement, timolol 0.5% was applied topically followed 30 min later by WIN55 212-2 1.0%, O-1812 1.0%, or O-2545 1.0%. In another experiment, O-1812 1.0% and O-2545 1.0% were administered simultaneously. An analysis for ocular irritation was performed by slit lamp examination (SLE) at baseline and 150 min.

[3] = Ocular toxicity by slit lamp, MacDonald-Shadduck scoring; assay type: in vivo, rats; conditions: topical
Protocol: Slit Lamp Biomicroscopy/Digital Photography. Ocular toxicity was measured using slit lamp examination and performed using a modified MacDonald-Shadduck semi-quantitative scale for ocular irritation (McDonald, T. O. and Shadduck, J. A. (1987) Eye irriation. In Dermatotoxicology. 3rd Ed. Mazulli and Maibach. Pp 641-696. Washington, DC: Hemisphere). All eyes were examined by a slit lamp fitted with a color digital camera for digital photography of conjunctiva, cornea, and anterior camber. Images were stored and analyzed using a digital video system (Lombart Instruments DVS System). At baseline and following drug administration, eyes were examined for conjunctival congestion, conjunctival discharge, corneal edema, aqueous flare, fibrin, and iris congestion (Samudre, S. S. et al. (2004) Comparison of Topical Steroids for Acute Anterior Uveitis. J. Ocul. Pharmacol. Ther. 20 (6):533-547). Knowledgeable, masked observers rated each factor on a semi-quantitative four point scale where zero was coded normal, 1=minimal, 2=moderate and 3=severe involvement. Results were compared to the normal baseline evaluation performed before treatment and also with the untreated contralateral eye.

[4] = tested on: retinal ganglionic cells (RGC); experiment: Rat NMDA model: retinal flat mounts, RGC count; assay type: in vivo; conditions: NMDA model, retinal flat mounts
Protocol: as §1
Histology. For retinal flat mounts, retinas were dissected from formalin fixed whole eyes, mounted on superfrost glass slides, stained with hematoxylin and eosin and digitally photographed. For analysis, the retina was divided into four quadrants. A minimum of five 50 μm^2 sections per quadrant were used to count cell number. The cell sections were selected to be equidistant from the optic cup for all quadrants. For optic nerve experiments, the optic nerve was dissected at the margin of the optic disk and embedded in cryo media. Sections of 10 μm thickness were cut and mounted on superfrost glass slides and stained with hematoxylin and eosin. The slides were digitally photographed.

[5] = Corneal thickness by in vivo confocal microscopy; set-up: species or system rats; conditions: 1.0% treated eye (OD) vs contralateral control (OS)
Protocol: Confocal Microscopy. Repeated noninvasive in vivo visualization of cornea and anterior segments for the presence, location and number of inflammatory cells, as well as fibrin, hyper-refractile bodies and changes in epithelial, stromal and endothelial cell morphology was performed by confocal microscopy. Prior to applanation, rats were sedated and 0.5% proparacaine was applied topically. Data was analyzed using the Metamorph imaging system (Universal Imaging, Downingtown, Pa.).

[6] = tested on: peripheral retinal ganglion cell; conditions: cited from earlier work

SMILES | Protection of optic nerve against NMDA induced damage (optic nerve) | Effect of CB1 antagonist SR-141716 on the action of the drug (ERG a-wave) (Rat NMDA Model) | IOP after 60 min (% of Baseline) ([1]; 0.01% topical, 60 min) | IOP after 60 min (% of Baseline) ([1]; 0.10% topical, 60 min) | IOP after 60 min (% of Baseline) ([1]; 1.0% topical, 60 min) | Effect on IOP compared to baseline or vehicle ([1]; topical) | IOP at 120 min (% Baseline) [2] | Ocular toxicity / signs of ocular inflammation [3] | Preservation of the number of RGCs [4] | Time for which significant IOP reduction was maintained ([1]; 1.0% topical) | Effect on IOP at 30 min ([1]; 1.0% topical) | also measured
C[C@H](CO)NC(=O)CCC/C=C\C/C=C\C/C=C\C/C=C\C(C)(C)CCCCC#N [Compound O-1812] | prevented much of the NMDA induced damage | effectively blocked | 81.9 ± 2.7 % of Baseline | 78.3 ± 3.1 % of Baseline | 61.9 ± 3.9 % of Baseline | effective; also recorded: significantly reduced IOP | 62.0 ± 0.5 % Baseline | non-toxic | preserved the number of RGCs |  |  | Retinal function, A-wave ERG (percentage of the contralateral normal eye) (Rat NMDA Model; NMDA intravitreal, drug 0.1%): more effectively preserved retinal function; Effect of CB2 antagonist SR-144258 on the action of the drug (ERG a-wave) (Rat NMDA Model; drug 0.1% + SR-144258 2 mM): no effect; Effect on IOP ([1]; 0.01% topical): significantly reduced IOP; Time for which the IOP decrease was maintained ([1]; 0.01% topical): ≤ 60 min; Relative efficacy in IOP reduction ([1]; 1.0% topical): most efficacious; Onset of IOP lowering action ([1]; topical): most rapid onset; RGCs preserved [4]: up to 83%
CC1=CC[C@@H]2[C@@H](C1)c1c(O)cc(C(C)(C)CCCCn3ccnc3)cc1OC2(C)C [Compound O-2545] | prevented much of the NMDA induced damage | effectively blocked |  | 77.8 ± 2.8 % of Baseline | 76.4 ± 2.8 % of Baseline |  | 65.5 ± 0.8 % Baseline |  | preserved the number of RGCs | up to 120 min | significantly reduced IOP | Time for which significant IOP reduction was maintained ([1]; 0.1% topical): up to 120 min; Effect on IOP at 30 min ([1]; 0.1% topical): significantly reduced IOP; Duration of IOP lowering action ([1]; topical): longest duration of action
Cc1c(C(=O)c2cccc3ccccc23)c2cccc3c2n1[C@H](CN1CCOCC1)CO3 [WIN 55-212-2, reference compound] |  |  | 83.1 ± 5.5 % of Baseline |  | 58.3 ± 5.6 % of Baseline | effective | 48.8 ± 2.8 % Baseline | non-toxic |  | up to 120 min | significantly reduced IOP | Corneal thickness [5]: remained unchanged; Effect on IOP compared to vehicle or baseline ([1]; 0.1% topical): not significantly different from either vehicle or baseline; Effect on IOP at 60 min ([1]; 1.0% topical, 60 min): significantly reduced
N=C(N)NN [aminoguanidine] |  |  |  |  |  |  |  |  |  |  |  | Less peripheral retinal ganglion cell loss compared to untreated rats [6]: 26%
